These results are taken from patent US8822517B2, “Arylosulfonamides for the treatment of CNS diseases” (Adamed SP. Z O.O., priority 2010, dated 2014).

In test [1] the test system is sigma σ receptor. Put plainly: Binding assay σ (non-selective), [3H]DTG, rat cerebral cortex. Particulars: percent inhibition of control specific binding; compounds tested at 1×10^−6 M. In a few lines:
(§1)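 Test conc. 1×10^−6 M. Read-out by scintillation counting. Specific = total − nonspecific (excess cold ligand).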

The subject of test [2] is adrenergic α1 receptor. As to the kind of experiment: Binding assay α1 (non-selective), [3H]prazosin, rat cerebral cortex. Particulars: percent inhibition of control specific binding; compounds tested at 1×10^−6 M. The procedure, abridged: as §1
The target of test [3] is T1, serotoninergic receptor 5-HT2C (Homo sapiens, UniProt P28335).
T1 construct: expressed in transfected cells; host or cells: HEK-293 cells
T1 sequence (P28335 33-458): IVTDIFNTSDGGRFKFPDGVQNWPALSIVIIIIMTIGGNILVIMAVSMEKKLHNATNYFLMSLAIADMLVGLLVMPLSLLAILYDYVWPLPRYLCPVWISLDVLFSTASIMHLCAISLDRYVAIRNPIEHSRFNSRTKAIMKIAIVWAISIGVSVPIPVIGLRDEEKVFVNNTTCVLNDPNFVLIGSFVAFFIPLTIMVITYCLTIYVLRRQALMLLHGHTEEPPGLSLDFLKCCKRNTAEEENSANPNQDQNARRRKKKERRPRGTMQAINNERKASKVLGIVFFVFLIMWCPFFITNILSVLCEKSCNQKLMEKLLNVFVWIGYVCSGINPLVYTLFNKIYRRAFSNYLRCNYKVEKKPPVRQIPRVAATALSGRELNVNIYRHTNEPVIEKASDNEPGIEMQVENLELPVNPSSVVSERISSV
Put plainly: Binding assay 5-HT2C (h), [3H]mesulergine, HEK-293 cells. Particulars: read-out: 5-HT2C [%]. The procedure, abridged:
as §1

In test [4] the target is dopaminergic D2 receptor (Homo sapiens, UniProt P14416). Put plainly: Cellular functional assay, dopaminergic D2 receptor (agonism/antagonism). Particulars: HEK293; for activation at 1 µM: agonist effect, percent of control specific agonist response (3 μM dopamine for control), 1×10^−6 M, D2S (h), HEK-293 cells, read-out: D2-ag [%]; for inhibition at 1 µM: read-out: D2-antag. [%]. It is filed as cell-based. On the procedure: (§2) The compounds were tested at the concentration of 1×10^−6M.
Sequence of dopaminergic D2 receptor (P14416 whole entry): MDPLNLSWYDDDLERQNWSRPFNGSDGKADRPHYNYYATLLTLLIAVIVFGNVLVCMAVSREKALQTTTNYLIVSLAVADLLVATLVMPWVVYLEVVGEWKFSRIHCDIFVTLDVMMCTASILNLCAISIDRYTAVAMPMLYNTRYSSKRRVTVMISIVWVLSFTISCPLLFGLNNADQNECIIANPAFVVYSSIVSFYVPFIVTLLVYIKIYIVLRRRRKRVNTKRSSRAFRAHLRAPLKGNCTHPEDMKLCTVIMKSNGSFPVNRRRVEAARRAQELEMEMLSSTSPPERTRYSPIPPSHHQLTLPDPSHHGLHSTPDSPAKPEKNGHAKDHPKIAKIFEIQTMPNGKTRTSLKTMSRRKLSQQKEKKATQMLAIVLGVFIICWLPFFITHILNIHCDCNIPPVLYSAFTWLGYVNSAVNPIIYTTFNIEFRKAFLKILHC
(§3) In the Tables ag refers to agonism, and antag to antagonism).

Test [5] concerns the target T2, serotoninergic 5-HT2A receptor (Homo sapiens, UniProt P28223). Put plainly: Cellular functional assay, serotoninergic 5-HT2A receptor (agonism/antagonism). Format: cell-based. As to conditions: for activation at 1 µM: read-out: 5-HT2A -ag [%]; for inhibition at 1 µM: read-out: 5-HT2A -antag [%]. On the procedure: […]. The compounds were tested at the concentration of 1×10^−6M.
Conditions and methodology (by reference to the literature) of cellular functional assays are given in Table 13 and the tests results for representative compounds are given in Table 14 (dopaminergic receptor D2), in Table 15 (dopaminergic receptor D3), in Table 16 (serotoninergic receptor 5-HT1A), in Table 17 (serotoninergic receptor 5-HT2A), in Table 18 (serotoninergic receptor 5-HT6), in Table 19 (serotoninergic receptor 5-HT7), in Table 20 (adrenergic α1 receptor), in Table 21 (adrenergic α2C receptor), in Table 22 (histaminergic H1 receptor) and in Table 23 (serotoninergic 5-HT2C receptor). In the Tables ag refers to agonism, and antag to antagonism).

The target of test [6] is serotoninergic 5-HT7 receptor (Homo sapiens, UniProt P34969). As to the kind of experiment: Cellular functional assay, serotoninergic 5-HT7 receptor (agonism/antagonism). It is filed as cell-based. As to conditions: for activation at 1 µM: agonist effect, percent of control specific agonist response, compounds tested at 1×10^−6M, read-out: 5-HT7-ag [%]; for inhibition at 1 µM: read-out: 5-HT7-antag. [%]. As to the method:
as §2, §3

For test [7], the target named is dopaminergic D3 receptor (Homo sapiens, UniProt P35462). Put plainly: Binding assay D3 (h), [3H]methyl-spiperone, CHO cells. Particulars: read-out: D3 [%]. The arrangement: expressed in transfected cells; host or cells: CHO cells. The procedure, abridged: as §1
Sequence of dopaminergic D3 receptor (P35462 whole entry): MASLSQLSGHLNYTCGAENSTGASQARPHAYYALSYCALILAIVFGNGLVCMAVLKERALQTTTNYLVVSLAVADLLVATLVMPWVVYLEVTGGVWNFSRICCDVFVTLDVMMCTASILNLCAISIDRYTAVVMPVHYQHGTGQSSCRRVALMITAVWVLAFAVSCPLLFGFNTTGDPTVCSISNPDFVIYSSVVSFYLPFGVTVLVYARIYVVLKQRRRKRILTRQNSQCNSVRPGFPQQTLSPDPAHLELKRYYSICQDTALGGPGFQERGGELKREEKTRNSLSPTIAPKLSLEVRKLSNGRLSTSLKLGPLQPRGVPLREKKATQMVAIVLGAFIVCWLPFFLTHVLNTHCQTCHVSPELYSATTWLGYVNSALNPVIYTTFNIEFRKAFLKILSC
For test [8], the target named is T3, adrenergic α2C receptor (Homo sapiens, UniProt P18825).
T3 sequence (P18825 1-462): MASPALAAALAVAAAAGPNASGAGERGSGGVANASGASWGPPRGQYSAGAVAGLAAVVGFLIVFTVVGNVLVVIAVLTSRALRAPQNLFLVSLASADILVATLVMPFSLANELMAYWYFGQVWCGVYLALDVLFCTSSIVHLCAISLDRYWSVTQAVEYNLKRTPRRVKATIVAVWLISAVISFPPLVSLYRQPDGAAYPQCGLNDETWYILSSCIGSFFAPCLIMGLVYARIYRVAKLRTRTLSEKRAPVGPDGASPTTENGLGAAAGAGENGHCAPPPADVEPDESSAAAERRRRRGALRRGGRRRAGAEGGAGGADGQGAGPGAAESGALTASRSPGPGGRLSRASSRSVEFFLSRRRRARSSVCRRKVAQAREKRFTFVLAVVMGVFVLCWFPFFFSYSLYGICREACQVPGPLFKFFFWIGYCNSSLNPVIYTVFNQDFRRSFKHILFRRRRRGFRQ
Put plainly: Binding assay α2C (h), [3H]RX 821002, CHO cells. The arrangement: expressed in transfected cells; host or cells: CHO cells. Particulars: read-out: α2C [%]. In a few lines: as §1

In test [9] the target is T4, serotoninergic 5-HT1A receptor (Homo sapiens, UniProt P08908).
T4 sequence (P08908 1-422): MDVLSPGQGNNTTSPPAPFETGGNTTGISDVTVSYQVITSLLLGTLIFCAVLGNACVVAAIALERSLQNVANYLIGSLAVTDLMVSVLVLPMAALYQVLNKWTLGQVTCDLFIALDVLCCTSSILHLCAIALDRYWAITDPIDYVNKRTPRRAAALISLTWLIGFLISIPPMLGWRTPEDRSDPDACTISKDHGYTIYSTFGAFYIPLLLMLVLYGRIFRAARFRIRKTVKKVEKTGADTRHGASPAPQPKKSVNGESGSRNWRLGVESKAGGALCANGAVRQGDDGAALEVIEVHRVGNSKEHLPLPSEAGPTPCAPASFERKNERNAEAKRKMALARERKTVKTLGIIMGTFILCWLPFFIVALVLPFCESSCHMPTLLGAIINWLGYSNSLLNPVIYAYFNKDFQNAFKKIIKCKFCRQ
Put plainly: Binding assay 5-HT1A (h), [3H]8-OH-DPAT, HEK-293 cells. The arrangement: expressed in transfected cells; host or cells: HEK-293 cells. As to conditions: read-out: 5-HT1A. In a few lines:
as §1

Test [10] deals with T2, serotoninergic 5-HT2A receptor. Put plainly: Binding assay 5-HT2A (h), [3H]ketanserin, HEK-293 cells. Also noted: expressed in transfected cells; host or cells: HEK-293 cells. Particulars: read-out: 5-HT2A. The procedure, abridged: as §1

The structures appear in SMILES notation.

T2 sequence (P28223 whole entry): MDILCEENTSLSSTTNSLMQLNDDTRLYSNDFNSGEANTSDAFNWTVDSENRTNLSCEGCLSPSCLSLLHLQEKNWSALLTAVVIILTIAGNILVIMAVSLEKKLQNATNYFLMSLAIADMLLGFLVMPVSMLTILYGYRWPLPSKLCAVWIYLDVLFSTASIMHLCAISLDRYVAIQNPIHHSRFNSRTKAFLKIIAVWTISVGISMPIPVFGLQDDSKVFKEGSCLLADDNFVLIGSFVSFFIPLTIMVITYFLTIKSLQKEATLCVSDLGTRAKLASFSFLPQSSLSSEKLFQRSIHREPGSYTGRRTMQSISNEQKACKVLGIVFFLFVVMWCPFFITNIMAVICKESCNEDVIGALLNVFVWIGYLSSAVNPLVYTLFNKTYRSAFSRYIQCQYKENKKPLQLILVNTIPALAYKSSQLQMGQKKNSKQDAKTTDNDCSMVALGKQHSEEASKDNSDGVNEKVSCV
Sequence of serotoninergic 5-HT7 receptor (P34969 whole entry): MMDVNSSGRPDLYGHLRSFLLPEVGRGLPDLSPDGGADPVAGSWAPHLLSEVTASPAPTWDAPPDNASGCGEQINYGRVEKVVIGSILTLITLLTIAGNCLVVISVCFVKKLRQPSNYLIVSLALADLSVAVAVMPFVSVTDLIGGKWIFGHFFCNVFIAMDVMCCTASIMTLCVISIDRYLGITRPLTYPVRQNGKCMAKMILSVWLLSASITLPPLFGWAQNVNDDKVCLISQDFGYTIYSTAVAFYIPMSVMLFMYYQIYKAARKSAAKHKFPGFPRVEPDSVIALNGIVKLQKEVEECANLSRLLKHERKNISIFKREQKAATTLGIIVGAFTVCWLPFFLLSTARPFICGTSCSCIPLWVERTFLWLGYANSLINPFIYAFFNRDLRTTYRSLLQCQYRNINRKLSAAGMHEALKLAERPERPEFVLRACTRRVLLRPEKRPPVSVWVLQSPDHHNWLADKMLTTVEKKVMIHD

On to `O=S(=O)(NCCCCN1CCN(c2cccc3[nH]ccc23)CC1)c1ccc2cc(Cl)ccc2c1` [Compound 358, 6-Chloro-N-[4-[4-(1H-indol-4-yl)piperazin-1-yl]butyl]naphthalene-2-sulphonamide], for which the “σ [%]” value in [1] turned out to be 84%. Also, the “α1 [%]” value in test [2] came out at 88%. Also, the inhibition at 1 µM in [3] was 62%; in test [4], 84%; in test [5], 57%; in test [6], 28%; in test [7] it was 99%; in test [8], 101%. Also, the inhibition at 1 µM is 100% in test [9] and 99% in [10]. For the same molecule, the activation at 1 µM in test [4] is 30%; in [5], -1%; in test [6], 10%.
In the case of `O=c1[nH]c2ccc(S(=O)(=O)NCCCCN3CCN(c4noc5ccccc45)CC3)cc2o1` [Compound 16, N-(4-(4-(1,2-Benzoxazol-3-yl)piperazin-1-yl)butyl)-2-oxo-3H-1,3-benzoxazole-6-sulphonamide], in [1], the “σ [%]” value was 2%. In addition, the “α1 [%]” value in test [2] was found to be 101%. The inhibition at 1 µM in test [3] is 53%; in test [4], 98%; in test [5], 98%; in test [6], 80%; in test [7] it was 99%; in test [8] it was 101%. Besides, the results for the inhibition at 1 µM in test [9] and in [10] were 93% and 100%, respectively. Moreover, the results for the activation at 1 µM in test [4], in test [5] and in test [6] were 4%, -1% and -1%, respectively.
As for `O=S(=O)(NCCCCN1CCN(c2cccc3[nH]ccc23)CC1)c1cc2ccccc2s1` [Compound 33, N-{4-[4-(1H-Indol-4-yl)piperazin-1-yl]butyl}-1-benzothiophene-2-sulphonamide], the “σ [%]” value in test [1] came to 94%. The “α1 [%]” value in [2] amounted to 100%. Also, the inhibition at 1 µM was determined as 27% in test [3]; 98% in [4]; 41% in test [5]; 20% in test [6]; 101% in test [7]; 100% in [8]. Further, the inhibition at 1 µM in test [9] was determined as 100%; in test [10], 95%. Further, the activation at 1 µM in [4] is 37%; in test [5] it was -1%; in [6] it was 19%.
Regarding `O=S(=O)(NCCCCN1CCC(c2noc3cc(F)ccc23)CC1)c1cc2ccccc2s1` [Compound 312, N-[4-[4-(6-Fluoro-1,2-benzoxazol-3-yl)piperidin-1-yl]butyl]benzothiophene-2-sulphonamide], the “σ [%]” value in test [1] came out at 71%. The “α1 [%]” value in [2] is 100%. The inhibition at 1 µM in test [3] is 80%; in test [4], 90%; in [5], 98%; in test [6], 97%; in test [7], 97%; in [8], 92%. For the same molecule, the figures for the inhibition at 1 µM in test [9] and in test [10] were 86% and 99%, respectively. The activation at 1 µM in [4] is 4%; in [5], -2%; in test [6], -2%.
In the case of `O=S(=O)(NCCCCN1CCN(c2noc3ccccc23)CC1)c1cccc2ccccc12` [Compound 13, N-(4-(4-(1,2-Benzoxazol-3-yl)piperazin-1-yl)butyl)naphthalene-1-sulphonamide], the “σ [%]” value in test [1] is recorded as 87%. For the same molecule, the “α1 [%]” value in test [2] came to 102%. Also, the inhibition at 1 µM in test [3] was found to be 34%; in test [4], 95%; in [5] it was 100%; in test [6], 95%; in test [7], 92%; in test [8] it was 99%. The values for the inhibition at 1 µM in [9] and in [10] were 89% and 100%, respectively. In addition, the results for the activation at 1 µM in test [4], in test [5] and in test [6] were 2%, 2% and 1%, respectively.
With `O=S(=O)(NCCCCN1CCC(c2noc3cc(F)ccc23)CC1)c1ccc2ccccc2c1` [Compound 18, N-[4-[4-(6-Fluoro-1,2-benzoxazol-3-yl)piperidin-1-yl]butyl]naphthalene-2-sulphonamide], the inhibition at 1 µM in test [3] was 73%; in [4] it was 98%; in test [5], 102%; in [6] it was 89%; in test [7], 98%; in [8], 100%. Besides, the figures for the inhibition at 1 µM in test [9] and in test [10] were 81% and 100%, respectively. For the same molecule, the activation at 1 µM in test [4], in test [5] and in test [6] was -1% each time.
With `O=S(=O)(NCCCCN1CCN(c2noc3ccccc23)CC1)c1c[nH]c2ncccc12` [Compound 89, N-[4-[4-(1,2-Benzoxazol-3-yl)piperazin-1-yl]butyl]-1H-pyrrolo[2,3-b]pyridine-3-sulphonamide], in test [1], the “σ [%]” value was −1%. Also, in test [2], the “α1 [%]” value is 98%. The inhibition at 1 µM was 34% in test [3]; 94% in [5]; 91% in [6]; 95% in [7]; 98% in [8]; 71% in [9]. In addition, in test [10], the inhibition at 1 µM is 99%. Further, the activation at 1 µM in test [5] and in test [6] was -2% each time.
